{
  "source": "patent US10254288B2",
  "about": "“Method for species-independent measurement of complement activation in animals” (Quidel Corporation, priority 2013, dated 2019)",
  "key": {"rat C3": {"tested_on": "rat C3", "assay": "C3 consumption in rats in vivo, PS-C3 method in hirudinized plasma samples", "details": "12.5 U/kg CVF", "procedure": "Male Wistar rats (340-480 g) were anesthetized i.p. by Na-pentobarbital (Nembutal, 50 mg/kg) or thiobutabarbital (lnactin, 120 mg/kg). The left femoral artery and vein, left carotid artery, and right jugular vein were cannulated. Rats were anticoagualated with lepirudin (Refludan, 5 mg/kg), then injected i.v. with the C activator liposomes, Doxil and Ambisome. Blood samples were collected from the carotid artery at start (time 0) and at 1-3-5-10-30 min postinjection.\nSimilar experiments as described in Example 7, except that the rats were injected with 10 mg/kg zymosan or 12.5 U/kg CVF.\nSimilar experiments as described in Example 11, except that C activation was measured by Quidel's human SC5b-9 (A) and C3a kits (B). Rats were injected with 12.5 U/kg CVF."}, "[1]": {"tested_on": "C activation in dog serum", "assay": "Complement activation by different activators in dog serum, pan-species C3 method", "type": "biochemical", "details": "SC5b-9 ELISA to determine SC5b-9", "procedure": "Methods • The sera that were not of commercial origin were prepared from freshly drawn blood, which was let to clot at room temperature for 10-30 min, followed by centrifugation and collection of the supernatant. The serum was then stored at −80° C. until use. Zymosan (final concentration: 1.3 mg/ml) was prepared by suspending it at 2% in 0.15 M sodium chloride, boiling in a water bath for one hour, then centrifuged for 30 minutes at 4000 rpm. The supernatant was discarded and the residue suspended evenly in 0.15 M sodium chloride to 2%. • HAGG was diluted 100-fold (to a final concentration: 0.5 mg/mL). • 10 μL Zymosan (20 mg/ml) or HAGG were incubated for 1 h at 37° C. with a mixture of 20 μL animal serum, and 20 μl C3depl-NHS 100 μl PBS. The reaction was stopped by the addition of the 10 μl stop solution, and 100 μL of a 1:1600 dilution from the mixtures were applied to the wells of the SC5b-9 ELISA plates to measure the formation of SC5b-9 as specified by the manufacturer.\nMaterials and Methods • Dog blood was obtained from WellPet Animal Clinic (Kecskemét, Géza Fejedelem körút 51. Hungary). Serum was prepared by letting the blood clot at 4° C. for about 10 min (dog blood clots rapidly), followed by centrifugation and collection of supernatant serum. […]"}},
  "data": [
    {"compound": "CVF", "values": [
      {"measurement": "human C3a in the reaction mixture (Quidel's C3a kit)", "setting": "rat C3", "result": "elevated"},
      {"measurement": "time to consume essentially all C3", "setting": "rat C3", "result": "≤ 30", "unit": "min"},
      {"measurement": "C3 consumed", "setting": "rat C3; within 30 min", "result": "essentially all C3"}
    ]},
    {"compound": "CCCCCCCC/C=C\\CCCCCCCC(=O)OCCOCC(OCCO)C1OCC(OCCO)C1OCCO", "note": "(stereo not shown) [Tween 80]", "values": [
      {"measurement": "rise of SC5b-9 over PBS control", "setting": "[1]", "result": "~30", "unit": "fold"}
    ]}
  ]
}
